Measured values as given in PMC11078956, “Structural investigation of interactions between halogenated flavonoids and the lipid membrane along with their role as cytotoxic agents” (Scientific Reports, 2024).

What was measured:
[1] = tested on: RDSVS-TCC1 cells; test: MTT cytotoxicity, RDSVS-TCC1; type: cell-based, canine; conditions: Canis lupus familiaris, 72 h, mean ± SD, read-out: IC50 values after 72 h
From the text: (§1) The study involved four canine cancer cell lines: RDSVS-TCC1 and K9NK (bladder cancer), CLBL-1 (B-cell lymphoma), GL-1 (B/T-cell leukemia) and noncancerous cell line CF2TH (fetal canine thymus). CLBL-1 was obtained from Barbara C.Ruetgen from the Institute of Immunology, Department of Pathobiology, University of Veterinary Medicine, Vienna[48]. GL-1 from Yasuhito Fujino and Hajime Tsujimoto of the University of Tokyo, Department of Veterinary Internal Medicine[49]. The CF2TH cell line was purchased from American Type Culture Collection (ATCC, Rockville, MD, USA).
(§2) The cell lines were maintained in RPMI- 1640 (CLBL-1, GL-1 and CF2TH) (Gibco, Grand Island, NY, USA) or DMEM (Institute of Immunology and Experimental Therapy, Polish Academy of Sciences, Wrocław, Poland) (RDSVS-TCC1, K9NK) culture medium supplemented with 10% fetal bovine serum FBS (Gibco, Grand Island, NY, USA), 100 units/mL penicillin and […] streptomycin and 1% of L-glutamine (Sigma Aldrich, Steinheim, Germany).
(§3) The cytotoxicity assay was determined by MTT test after 72 h of treatment, according to the procedure described previously[50] with minor modifications.
(§4) In summary, the cells plated at the density of 3*10^4 (k9NK, RDSVS-TCC1), 2*10^5 (CLBL-1, GL-1) and 7.5*10^3 (CF2TH) per mililiter were seeded in 96-well plates (NUNC, Denmark).
(§5) The concentration of tested flavonoids was in the range 1.25–50 µM and DMSO concentration was < 1% in each dilution which is considered harmless to the cells). After incubation for 72 h, 10 µl of 3-(4,5-dimethylthiazol-2-yl)-2,5-diphenyltetrazolium bromide (MTT) solution was added to each well followed by 4 h incubation, then 40 μL of lysis buffer were added. The optical density (OD) of formazan formed from MTT was measured after 24 h using a spectrophotometric microplate reader (Spark, Tecan, Männedorf, Switzerland) at […] 570 nm.
(§6) The results were: determined from more than three independent experiments (three wells each) and presented as mean IC50 value ± SD.

[2] = tested on: K9NK cells; test: MTT cytotoxicity, K9NK; type: cell-based, canine; conditions: Canis lupus familiaris, 72 h, mean ± SD, read-out: IC50 values after 72 h
From the text: as §1, §2, §3, §4, §5, §6

[3] = tested on: GL-1 cells; test: MTT cytotoxicity, GL-1; type: cell-based, canine; conditions: Canis lupus familiaris; GL-1, MTT, 72 h, mean ± SD; read-out: IC50 values after 72 h
From the text: as §1, §2, §3, §4, §5, §6

[4] = tested on: CLBL-1 cells; test: MTT cytotoxicity, CLBL-1; type: cell-based, canine; conditions: Canis lupus familiaris; CLBL-1, MTT, 72 h, mean ± SD; read-out: IC50 values after 72 h
From the text: as §1, §2, §3, §4, §5, §6

[5] = tested on: CF2TH cells; test: MTT cytotoxicity, CF2TH normal cell line; type: cell-based, canine; conditions: Canis lupus familiaris, 72 h, mean ± SD, read-out: IC50 values after 72 h
From the text: as §1, §2, §3, §4, §5, §6

[6] = tested on: breast cancer cells MCF-7; set-up: method as in PMID 32364671; conditions: cited from earlier work
[7] = tested on: RDSVS-TCC1, GL-1, CLBL-1, CF2TH cells; test: MTT cytotoxicity, all lines tested except K9NK; type: cell-based, canine; conditions: Canis lupus familiaris, 72 h
From the text: as §1, §2, §3, §4, §5, §6

[8] = Hemolysis of red blood cells; type: cell-based; conditions: human, human red blood cells (erythrocytes), read-out: degree of haemolysis
Method: The cytotoxicity level of the compounds was assessed through a haemolytic activity test, measuring the impact of six compounds at concentrations of […] on human red blood cells (RBCs). According to toxicity categorization, compounds are considered highly toxic if they cause a haemolysis rate of 90–100% and are considered non-toxic if the haemolysis rate falls within the range of 0–9%[28].
Hemolysis, a method to assess the release of hemoglobin from red blood cells (RBCs), was comprehensively explained in our prior research.
For erythrocytes with a hematocrit level of 12%, the compounds were introduced at concentrations of 10, 20, 40 and 60 μM. The prepared samples were kept at 37 °C for 1 and 24 h.
After the incubation period, the samples underwent centrifugation, and the hemoglobin concentration in the supernatants was quantified using a UV–VIS spectrophotometer (Specord 40, AnalytikJena) at a wavelength of 540 nm. The percentage of RBCs hemolysis were determined by comparing the absorbance of hemoglobin in the tested samples to the absorbance of hemoglobin in completely hemolyzed cells (100%). Samples achieving total hemolysis (100%) were generated by adding distilled water.

O=c1cc(-c2ccccc2)oc2c(Br)cc(Cl)cc12 [D6, 8-bromo-6-chloroflavone]
IC50 [1]: 37.7 ± 14.4 µM | IC50 [2]: 29.1 ± 16.2 µM | IC50 [3]: 47.2 ± 1.41 µM | IC50 [4]: 38.1 ± 7.81 µM | IC50 [5]: 38.1 ± 7.87 µM

O=c1cc(-c2ccccc2)oc2c(Br)c(O)c(O)c(O)c12 [8-bromobaicalei]
IC50 [6]: 10 ± 3 µM

O=c1cc(-c2ccccc2Cl)oc2ccccc12 [D1, 2′-chloroflavone]
IC50 [1]: 32.6 ± 8.04 µM | IC50 [2]: 59.9 ± 14.7 µM | IC50 [3]: 26.5 ± 3.05 µM | IC50 [4]: 26.6 ± 3.61 µM | IC50 [5]: 28.2 ± 6.6 µM | IC50 [7]: ~30 µM | melting point: 109 to 110 °C

O=c1cc(-c2ccc(Cl)cc2)oc2ccccc12 [D3, 4′-chloroflavone]
IC50 [1]: 28.2 ± 5.62 µM | IC50 [2]: 19.4 ± 6.75 µM | IC50 [3]: 35.1 ± 6.17 µM | IC50 [4]: 32.8 ± 2.11 µM | IC50 [5]: 28.4 ± 5.02 µM | IC50 [7]: ~30 µM

O=c1cc(-c2ccccc2)oc2ccc(Cl)cc12 [D4, 6-chloroflavone]
IC50 [1]: 58.7 ± 13.3 µM | IC50 [2]: 35.6 ± 3.41 µM | IC50 [3]: 62.4 ± 2.89 µM | IC50 [4]: 74.4 ± 28.7 µM | IC50 [5]: 80.9 ± 14.1 µM | hemolysis at 24 h, 30 µM ([8]; 30 μM): 10.8 ± 5.46%

O=c1cc(-c2cccc(Cl)c2)oc2ccccc12 [D2, 3′-chloroflavone]
IC50 [1]: 31.6 ± 5.97 µM | IC50 [2]: 31.2 ± 6.87 µM | IC50 [3]: 26.5 ± 4.57 µM | IC50 [4]: 26.3 ± 6.33 µM | IC50 [5]: 22.9 ± 6.88 µM | IC50 [7]: ~30 µM | hemolysis at 24 h, 40 µM ([8]; 40 μM): 16 ± 1.78% | hemolysis at 24 h, 50 µM ([8]; 50 μM): 22.7 ± 1.98%

O=c1cc(-c2ccccc2)oc2c(Cl)cc(Cl)cc12 [D5, 6,8-dichloroflavone]
IC50 [1]: 43 ± 11.3 µM | IC50 [2]: 30.5 ± 13.8 µM | IC50 [3]: 38.8 ± 6.48 µM | IC50 [4]: 76.4 ± 23.2 µM | IC50 [5]: 28.5 ± 18 µM
